According to patent US11524962B2, “Substituted pyrrolo[2,3-d]pyrimidines as inhibitors of protein arginine methyl transferase 5 (PRMT5)” (PRELUDE THERAPEUTICS, INCORPORATED, priority 2017, dated 2022):

Assays:
PRMT5/MEP50 complex [1] = target: T1, PRMT5/MEP50 complex (Homo sapiens (Human), UniProt O14744); assay: Flash plate assay; format: biochemical; conditions: read-out: Flash Plate IC50
Experimental: Flash plate assay. Compounds were solubilized, and 3-fold diluted in 100% DMSO. […] Standard reactions were performed in a total volume of 30 μl in assay buffer, with 300 nM histone H4 based AcH4-23 (Anaspec: AS-65002) as substrate. To this was added the PRMT5/MEP50 complex diluted to provide a final assay concentration of 2.5 nM and the compounds were allowed to preincubate for 20 minutes at 37° C. The reaction was initiated by adding S-[3H-methyl]-adenosyl-L-methionine (PerkinElmer: NET155001MC) to final concentration of 1 μM. Following a 30 minutes incubation at 37° C., the reaction was stopped by adding 25 μL of 8M Guanidine HCl. Prepare streptavidin YSI SPA beads (Perkinelmer: RPNQ0012) at 0.3 mg/mL in assay buffer. To each reaction, add 150 μL of SPA beads suspension, and incubated while shaking at room temperature for 30 minutes. The plate was centrifuged at 100×g for 30 second before reading in a scintillation counter. IC50 values were determined by fitting the data to the standard 4 parameters with Hill Slope using GraphPad Prism software. This procedure produced the Flash Plate data in Table 7.

PRMT5/MEP50 complex [2] = target: T1, PRMT5/MEP50 complex; assay: HotSpot Assay; format: biochemical
Experimental: HotSpot Assay. Compounds were solubilized and 3-fold diluted in 100% DMSO. […] Standard reactions were performed in a total volume of 50 μl in assay buffer, with histone H2A (5 μM final) as substrate. To this was added the PRMT5/MEP50 complex diluted to provide a final assay concentration of 5 nM and the compounds were allowed to preincubate for 15 to 20 minutes at room temperature. The reaction was initiated by adding S-[3H-methyl]-adenosyl-L-methionine (PerkinElmer) to final concentration of 1 μM. Following a 60 minutes incubation at 30° C., the reaction was stopped by adding 100 μL of 20% TCA. Each reaction was spotted onto filter plate (MultiScreen FB Filter Plate, Millipore), and washed 5 times with PBS buffer, Scintillation fluid was added to the filter plate and read in a scintillation counter. IC50 values were determined by fitting the data to the standard 4 parameters with Hill Slope using GraphPad Prism software. This procedure generated the HotSpot data in Table 7.

[3] = system: Symmetric Di-Methyl Arginine (sDMA) marks in U-87 MG cells; assay: sDMA Western blot / In Cell Western in U-87 MG cells; format: cell-based; conditions: Homo sapiens, 72 h, 3 days, read-out: sDMA_U87 IC50
Experimental: (§1) Compound titration and cell culture: Compounds were dissolved in DMSO to make 10 mM stock and 3-fold series dilutions were further conducted to make working stocks top at 1 mM. Granta-519 cells were maintained in PRMI 1640 (Corning Cellgro, Catalog #: 10-040-CV) supplemented with 10% v/v FBS (GE Healthcare, Catalog #: SH30910.03) and U-87 MG cells were maintained in DMEM (Corning Cellgro, Catalog #: 10-013-CV) with 10% FBS and 2 mM Glutamin (Corning Cellgro, Catalog #25005CV).
(§2) To determine enzyme inhibition IC50 values in Granta-519 and U-87 MG cells using Western Blot analysis. One day before experiment, Granta-519 cells were passaged to a density of 0.5×10^6 cells/ml. U-87 MG cells were trypsinized and 4×10^5 cells were seeded into 6-well plates and allow to grow overnight. The next day, Granta-519 cells were spun down at 1,500 rpm for 4 min, resuspend in fresh medium at 0.5×10^6 cells/ml and 3 mL of culture (1.5×10^6 cells) were seeded into 6 well plate. Eight-point, 3-fold serial dilutions of compound working stocks were added to cells (3 ul, 1:1,000 dilution, DMSO concentration was 0.1%; final top concentration at 1 uM) and incubated for 3 days. Cells incubated with DMSO was used as a vehicle control.
(§3) Cells were harvested 3 days later, resuspended in 15 uL PBS, lysed in 4% SDS, and homogenized by passing through homogenizer column (Omega Biotek, Catalog #: HCR003). Total protein concentrations were determined by BCA assay (ThermoFisher Scientific, Catalog #: 23225). Lysates were mixed with 5× Laemmli buffer and boiled for 5 min. Forty ug of total protein was separated on SDS-PAGE gels (Bio-Rad, catalog #: 4568083, 4568043), transferred to PVDF membrane, blocked with 5% dry milk (Bio-Rad, Catalog #: 1706404) in TBS with 0.1% v/v Tween 20 (TBST) for 1 hour at room temperature (RT), and incubated with primary antibodies (sDMA: Cell signaling, Catalog #: 13222, 1:3,000; β-Actin: sigma, Catalog #: 1:5,000) in 5% dry milk in TBST at 4° C. overnight. The next day, membranes were washed with TBST, 5×5 min, and incubated with HRP conjugated seconded antibody (GE Healthcare; Catalog #: NA934-1ML, NA931-1ML; 1:5,000) for 2 hours at RT, followed by 5×5 min washes with TBST, and incubation with ECL substrates (Bio-Rad, Catalog #: 1705061, 1705062). Chemiluminescent signal was captured with Fluochem HD2 imager (Proteinsimple). SmD3me2s bands were quantified by ImageJ. Signals were normalized to β-Actin and DMSO control. IC50 values were calculated using Graphpad Prism ([Inhibitor]vs. normalized response−Variable slope).
U87-MG cells were trypsinized one day before the experiment, seeded into a 384-well plate at 2500 cells/well using a Multidrop Combi Dispenser (ThermoFisher) and allowed to grow overnight. The next day (day 0), a series of 9-point, 3-fold serial dilutions of compounds were prepared and dispensed into wells from a 1 mM stock solution using a TECAN digital dispenser (D300e) and the DMSO % concentration was normalized to 0.1%. Three days later, media was removed, and cells were processed as described above.
To determine IC50 values, the ratio for each well was calculated (sDMA 800 nm value/DRAQ5 700 nm value). Each plate included 28 negative control wells (DMSO only, minimum inhibition) and 18 positive control wells for maximum inhibition (treated with 3 uM of a reference compounds, background wells). The average ratios of minimum and maximum inhibition controls were calculated and used to determine the percentage of sDMA, relative to DMSO, for each well in the plate.
These procedures generated the sDMA data in Table 7.

U-87 MG cells = assay: Cell proliferation assay in U-87 MG cells; format: cell-based; conditions: Homo sapiens, 240 h, day 10, read-out: Prolif_U87 IC50
Experimental: One day before experiment, Granta-519 cells were passaged to a density of 0.5×10^6 cells/ml. U-87 MG cells were trypsinized and 2,000 cells were seeded into 96-well plates and allow to grow overnight. On the day of experiment (day 0), Granta-519 Cells were spun down at 1,500 rpm for 4 min, resuspended in fresh medium to 0.5×10^6 cells/ml and 190 ul of cells were added to 96 well plates. For U-87 MG cells, old medium was removed and replaced with 190 uL fresh medium. Compound working stocks were first diluted at 1:50 with fresh medium in 96 well plate and 10 μL of diluted drugs were added to 96 well plates containing cells and incubated for 3 days. DMSO was used a vehicle control.
One day 3, 50 uL of Granta-519 cells were transferred to a new 96-well plate and 140 uL fresh medium was added. For U-87 MG cells, old medium was removed and replaced with 190 uL fresh medium. Compound working stocks were freshly diluted at 1:50 with medium and 10 μL of diluted drugs were added to cells and grow for 3 additional days. The same process was repeated on day 6. Cells were allowed to grow for additional 4 days.
On day 10, 100 uL Granta-519 cells were transferred to a new 96 well plate and 10 μL of Cell Counting Kit-8 (CCK-8, Jojindo, CK04-13) solution was added. For U-87 MG cells, old medium was removed and replaced with 100 uL fresh medium and 10 uL CCK-8 solution was added. Plates were incubated in CO2 incubator for 2 hours (Granta-519 cells) or 30 min (U-87 MG cells) and OD450 values were measured with a microplate reader (iMark microplate reader, Bio-Rad). Percentage of viable cells, relative to DMSO vehicle control, were calculated and plotted in Graphpad Prism ([Inhibitor]vs. normalized response−Variable slope) to determine proliferation IC50 values on day 10.
These cell proliferation procedures produced the data in Table 7.

[4] = system: Symmetric Di-Methyl Arginine (sDMA) marks in Granta-519 cells; assay: sDMA Western blot / In Cell Western in Granta-519 cells; format: cell-based; conditions: Homo sapiens, 72 h; Granta-519, 3 days; read-out: sDMA_Granta IC50
Experimental: as §1, §2, §3
sDMA In Cell Western procedure (ICW): Granta-519 cells were passaged to a density of 0.5×10^6 cells/ml one day before experiments and allowed to grow overnight. The next day (day 0), cells were spun down at 1,500 rpm for 4 min, resuspended in fresh medium to 0.2×10^6 cells/ml and 100 uL of cells were added to 384-well plates using a Multidrop Combi Dispenser (ThermoFisher). A series of 9-point, 3-fold serial dilutions of compounds were prepared and dispensed into wells from a 1 mM stock solution using a TECAN digital dispenser (D300e) and the DMSO % concentration was normalized in each well to 0.1%. DMSO and 3 uM of reference compounds were used as negative (minimum inhibition) and positive (maximum inhibition) controls, respectively. After 3 days of incubation, cells were first resuspended and then 80 ul of cells were transferred to a Poly-D-lysine 384-well plate (Corning, Catalog #354663), followed by 30 minutes incubation at room temperature (RT) and 5 additional hours of incubation at 37° C. […]

T1 sequence (O14744 whole entry): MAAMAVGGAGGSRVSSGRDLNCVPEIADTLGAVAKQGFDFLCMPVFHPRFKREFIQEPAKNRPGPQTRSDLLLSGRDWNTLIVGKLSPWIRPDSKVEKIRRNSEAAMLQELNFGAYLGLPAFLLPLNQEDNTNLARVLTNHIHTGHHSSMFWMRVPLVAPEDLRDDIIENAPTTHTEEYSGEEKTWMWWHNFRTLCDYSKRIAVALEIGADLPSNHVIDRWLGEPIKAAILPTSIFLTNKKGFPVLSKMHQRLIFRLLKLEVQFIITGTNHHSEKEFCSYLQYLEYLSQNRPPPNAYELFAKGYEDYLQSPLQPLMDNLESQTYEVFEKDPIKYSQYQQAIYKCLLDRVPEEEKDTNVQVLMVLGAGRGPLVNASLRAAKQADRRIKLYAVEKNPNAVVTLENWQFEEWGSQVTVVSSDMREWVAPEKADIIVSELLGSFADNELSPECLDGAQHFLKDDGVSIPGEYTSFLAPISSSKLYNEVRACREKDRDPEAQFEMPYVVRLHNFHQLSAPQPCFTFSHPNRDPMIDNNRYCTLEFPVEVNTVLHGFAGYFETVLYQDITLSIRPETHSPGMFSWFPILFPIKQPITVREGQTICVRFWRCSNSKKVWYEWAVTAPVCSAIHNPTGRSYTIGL
T1 sequence (Q9BQA1 whole entry partner): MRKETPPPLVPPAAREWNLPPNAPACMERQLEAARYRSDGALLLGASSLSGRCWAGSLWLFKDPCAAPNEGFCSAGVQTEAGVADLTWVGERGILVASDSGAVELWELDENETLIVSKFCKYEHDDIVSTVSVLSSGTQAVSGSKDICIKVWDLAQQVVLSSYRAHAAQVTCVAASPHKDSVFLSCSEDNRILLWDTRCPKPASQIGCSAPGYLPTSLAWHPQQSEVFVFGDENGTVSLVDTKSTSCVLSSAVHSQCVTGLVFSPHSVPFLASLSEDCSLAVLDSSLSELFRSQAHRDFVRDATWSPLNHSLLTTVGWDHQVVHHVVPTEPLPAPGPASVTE

IC50 (PRMT5/MEP50 complex [1]) [nM] | IC50 (PRMT5/MEP50 complex [2]) [nM] | IC50 [3] [nM] | IC50 (U-87 MG cells) [nM] | IC50 [4] [nM] | SMILES
221 | 368 | – | – | – | Nc1ncnc2c1c(C(F)(F)F)cn2[C@@H]1O[C@H]([C@H](O)c2ccc3c(c2)CC3)[C@@H](O)[C@H]1O [Example 38, (2R,3R,4S,5R)-2-(4-amino-5-(trifluoromethyl)-7H-pyrrolo[2,3-d]pyrimidin-7-yl)-5-((R)-bicyclo[4.2.0]octa-1(6),2,4-trien-3-yl(hydroxy)methyl)tetrahydrofuran-3,4-diol]
121 | 32 | – | – | – | CO/N=c1\[nH]cnc2c1ccn2[C@@H]1O[C@H]([C@H](O)c2ccc3c(c2)CC3)[C@@H](O)[C@H]1O [Example 20, 7-((2R,3R,4S,5R)-5-((R)-bicyclo[4.2.0]octa-1(6),2,4-trien-3-yl(hydroxy)methyl)-3,4-dihydroxytetrahydrofuran-2-yl)-3,7-dihydro-4H-pyrrolo[2,3-d]pyrimidin-4-one O-methyl oxime]
23.7 | – | 113 | 1160 | – | Cc1ncnc2c1ccn2[C@@H]1O[C@H]([C@H](O)c2ccc3c(c2)CCC3)[C@@H](O)[C@H]1O [Example 44, (2R,3S,4R,5R)-2-((R)-(2,3-dihydro-1H-inden-5-yl)(hydroxy)methyl)-5-(4-methyl-7H-pyrrolo[2,3-d]pyrimidin-7-yl)tetrahydrofuran-3,4-diol]
4.4 | 6 | – | – | 203 | Nc1ncnc2c1ccn2[C@@H]1O[C@H]([C@H](O)c2ccc3c(c2)OCC3)[C@@H](O)[C@H]1O [Example 14, (2R,3R,4S,5R)-2-(4-amino-7H-pyrrolo[2,3-d]pyrimidin-7-yl)-5-((R)-(2,3-dihydrobenzofuran-6-yl)(hydroxy)methyl)tetrahydrofuran-3,4-diol]
189 | 57 | – | – | – | CCO/N=c1\[nH]cnc2c1ccn2[C@@H]1O[C@H]([C@](C)(O)c2ccc3c(c2)CC3)[C@@H](O)[C@H]1O [Example 22, 7-((2R,3R,4S,5S)-5-((R)-1-(bicyclo[4.2.0]octa-1(6),2,4-trien-3-yl)-1-hydroxyethyl)-3,4-dihydroxytetrahydrofuran-2-yl)-3,7-dihydro-4H-pyrrolo[2,3-d]pyrimidin-4-one O-ethyl oxime]
287 | 46 | – | – | – | COc1ncnc2c1ccn2[C@@H]1O[C@H]([C@H](O)c2ccc3c(c2)CC3)[C@@H](O)[C@H]1O [Example 35, (2R,3S,4R,5R)-2-[(R)-4-bicyclo[4.2.0]octa-1,3,5-trienyl(hydroxy)methyl]-5-(4-methoxypyrrolo[2,3-d]pyrimidin-7-yl)tetrahydrofuran-3,4-diol]
31 | 12 | – | – | – | Nc1ncnc2c1c(I)cn2[C@@H]1O[C@H]([C@H](O)c2ccc3c(c2)CC3)[C@@H](O)[C@H]1O [Example 37, (2R,3R,4S,5R)-2-(4-amino-5-iodo-7H-pyrrolo[2,3-d]pyrimidin-7-yl)-5-((R)-bicyclo[4.2.0]octa-1(6),2,4-trien-3-yl(hydroxy)methyl)tetrahydrofuran-3,4-diol]
148 | 153 | – | – | – | CCO/N=c1\[nH]cnc2c1ccn2[C@@H]1O[C@H]([C@H](O)c2ccc3c(c2)CC3)[C@@H](O)[C@H]1O [Example 21, 7-((2R,3R,4S,5R)-5-((R)-bicyclo[4.2.0]octa-1(6),2,4-trien-3-yl(hydroxy)methyl)-3,4-dihydroxytetrahydrofuran-2-yl)-3,7-dihydro-4H-pyrrolo[2,3-d]pyrimidin-4-one O-ethyl oxime]
181 | – | – | – | – | OCc1ncnc2c1ccn2[C@@H]1O[C@H]([C@H](O)c2ccc3c(c2)CC3)[C@@H](O)[C@H]1O [Example 43, (2R,3S,4R,5R)-2-((R)-bicyclo[4.2.0]octa-1,3,5-trien-3-yl(hydroxy)methyl)-5-(4-(hydroxymethyl)-7H-pyrrolo[2,3-d]pyrimidin-7-yl)tetrahydrofuran-3,4-diol]
